Laboratory results as given in the supplement of paper PMC7600603.

Tests used:
DLD1 NRF2-GOF [1] = assay: drug sensitivity score (DSS) viability (DSS score); higher = more sensitive; extreme values may be limits of the assay; conditions: 72 h; CellTiter-Glo viability
In short: (§1)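 Isogenic DLD1 colorectal cancer cells, either NRF2 wild-type or CRISPR gain-of-function, were grown in DMEM with 10% FBS. They were exposed in 384-well plates to library compounds at 5 concentrations spanning a 10,000-fold range. After 72 h, viability was read by CellTiter-Glo on a Pherastar FS reader and normalised to vehicle wells and 100-μM positive-control wells. EC50 and drug sensitivity score (a normalised area under the curve) came from four-parameter logistic dose-response fits.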

DLD1 NRF2-WT [2] = assay: as above; conditions: 72 h; CellTiter-Glo viability
In short: as §1

DLD1 NRF2-GOF [3] = assay: TC50 cytotoxicity; higher = less toxic; conditions: 72 h; CellTox Green cytotoxicity
In short: (§2)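 TC50 and drug sensitivity score, a normalised area under the curve, were derived by logistic dose-response fits of cytotoxicity. The cells were an isogenic DLD1 colorectal cancer pair, NRF2 wild-type or CRISPR-edited, kept in DMEM with 10% FBS. Compounds were tested in 384-well plates at 5 concentrations across a 10,000-fold range for 72 h. Readings with CellTox Green on a Pherastar FS reader were normalised to vehicle wells and 100-μM positive-control wells.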

DLD1 NRF2-WT [4] = assay: TC50 cytotoxicity; higher = less toxic; conditions: 72 h; CellTox Green cytotoxicity
In short: as §2

DLD1 NRF2-GOF [5] = conditions: 72 h; CellTiter-Glo viability
In short: as §1

DLD1 NRF2-GOF [6] = assay: drug sensitivity score (DSS) cytotoxicity (DSS score); higher = more toxic; extreme values may be limits of the assay; conditions: 72 h; CellTox Green cytotoxicity
In short: as §2

DLD1 NRF2-WT [7] = assay: as above; conditions: 72 h; CellTox Green cytotoxicity
In short: as §2

DLD1 NRF2-WT [8] = conditions: 72 h; CellTiter-Glo viability
In short: as §1

Compound	drug sensitivity score (DLD1 NRF2-GOF [1])	drug sensitivity score (DLD1 NRF2-WT [2])	TC50 cytotoxicity (DLD1 NRF2-GOF [3]) [nM]	TC50 cytotoxicity (DLD1 NRF2-WT [4]) [nM]	EC50 viability (DLD1 NRF2-GOF [5]) [nM]	drug sensitivity score (DLD1 NRF2-GOF [6])	drug sensitivity score (DLD1 NRF2-WT [7])	EC50 viability (DLD1 NRF2-WT [8]) [nM]
CC(C)C(=O)Nc1ccc([N+](=O)[O-])c(C(F)(F)F)c1 [Flutamide]	4.6	0.9	> 10000	> 10000	796	0	0	
CC(C)C[C@H](NC(=O)[C@@H](COC(C)(C)C)NC(=O)[C@H](Cc1ccc(O)cc1)NC(=O)[C@H](CO)NC(=O)[C@H](Cc1c[nH]c2ccccc12)NC(=O)[C@H](Cc1cnc[nH]1)NC(=O)[C@@H]1CCC(=O)N1)C(=O)N[C@@H](CCCNC(=N)N)C(=O)N1CCC[C@H]1C(=O)NNC(N)=O [Goserelin]	0	4.5	> 10000	> 10000	> 10000	0	0	
O=S(=O)(c1cccc2c(O)nccc12)N1CCCNCC1 [Hydroxyfasudil]	3.9	2.4	> 19000	> 19000	2830	0	0	
CS(=O)(=O)CCNCc1ccc(-c2ccc3ncnc(Nc4ccc(OCc5cccc(F)c5)c(Cl)c4)c3c2)o1 [Lapatinib]	4.4	2.8	> 1000	> 1000	28.3	0	0	
CN1C(=O)N[C@H](Cc2c[nH]c3c(Cl)cccc23)C1=O [Necrostatin 2]	0	0			> 10000			> 10000
Cc1ccc(C(=O)Nc2ccc(CN3CCN(C)CC3)c(C(F)(F)F)c2)cc1C#Cc1cnc2cccnn12 [Ponatinib]	6	4			114			226
Nc1cc(F)ccc1NC(=O)/C=C/c1cnn(C/C=C/c2ccccc2)c1 [RGFP966]	3.7	3.9	> 10000	> 10000	1070	0	0	
COc1cc(OC)c(/C=C/S(=O)(=O)Cc2ccc(OC)c(NCC(=O)O)c2)c(OC)c1 [Rigosertib]	19	21	190		107	9.4	5.9	106
CCc1c2c(nc3ccc(O)cc13)-c1cc3c(c(=O)n1C2)COC(=O)[C@]3(O)CC [SN-38]	17.5	12.7		1670	158	2	2.3	337
Cn1cnc2c(F)c(Nc3ccc(Br)cc3Cl)c(C(=O)NOCCO)cc21 [Selumetinib]	0	2	> 10000	> 10000	> 10000	0	0	
CNC(=O)c1cc(Oc2ccc(NC(=O)Nc3ccc(Cl)c(C(F)(F)F)c3)cc2)ccn1 [Sorafenib]	3.3	1.2	> 1000	> 1000	87.1	0	0	
CC(=O)Nc1ccc(C(=O)Nc2ccccc2N)cc1 [Tacedinaline]	4	1.9	> 1000	> 1000	58.2	0	0	
Cn1ncnc1[C@H]1c2n[nH]c(=O)c3cc(F)cc(c23)N[C@@H]1c1ccc(F)cc1 [Talazoparib]	2.4	5.6	> 1000	> 1000	> 1000	0	0	
CO[C@H]1C[C@@H]2CC[C@@H](C)[C@@](O)(O2)C(=O)C(=O)N2CCCC[C@H]2C(=O)O[C@H]([C@H](C)C[C@@H]2CC[C@@H](OC(=O)C(C)(CO)CO)[C@H](OC)C2)CC(=O)[C@H](C)/C=C(\C)[C@@H](O)[C@@H](OC)C(=O)[C@H](C)C[C@H](C)/C=C/C=C/C=C/1C [Temsirolimus]	1.3	4.1			> 100			> 100
Cc1cc(Nc2cc(N3CCN(C)CC3)nc(Sc3ccc(NC(=O)C4CC4)cc3)n2)n[nH]1 [Tozasertib]	15.9	14.2	31.1		99.2	11.6	5.7	155
O=C(CCCCCCC(=O)Nc1ccc([C@H]2O[C@@H](CSc3nc(-c4ccccc4)c(-c4ccccc4)o3)C[C@@H](c3ccc(CO)cc3)O2)cc1)NO [Tubacin]	3	2.7	> 10000	> 10000	1710	0	0	
COc1cc2c(NC3CCN(C(C)C)CC3)nc(C3CCCCC3)nc2cc1OCCCN1CCCC1 [UNC0638]	0.2	2.4	> 10000	> 10000	> 10000	0	0	
Clc1ccc(Nc2nnc(Cc3ccncc3)c3ccccc23)cc1 [Vatalanib]	0	0			> 10000			> 10000
CC[C@]1(O)C[C@H]2CN(CCc3c([nH]c4ccccc34)[C@@](C(=O)OC)(c3cc4c(cc3OC)N(C=O)[C@H]3[C@@](O)(C(=O)OC)[C@H](OC(C)=O)[C@]5(CC)C=CCN6CC[C@]43[C@@H]65)C2)C1 [Vincristine]	22.8	22.4	> 1000		4.9	5.5	6.8	6.3
CC[C@@H]1C(=O)N(C)c2cnc(Nc3ccc(C(=O)N[C@H]4CC[C@H](N5CCN(CC6CC6)CC5)CC4)cc3OC)nc2N1C(C)C [Volasertib]	18.8	20.7			4.8	6	7	5.1
